Experimental findings from patent EP1434565B1, “USE OF GANODERIC ACIDS AS COSMETIC AGENTS” (YVES SAINT LAURENT PARFUMS, (Société Anonyme), priority 2001, dated 2003) are described below.

The assay has as its system MMP1 (collagénase interstitielle humaine). The assay can be described thus: Amount of MMP-1 produced by PMA-stimulated fibroblasts (ELISA). Format: cell-based, humains. The note with it: for inhibition at 0.04 %: ganoderic acids 0.04 %, versus témoin + PMA, read-out: diminution de la quantité MMP1; for activity at 0.04 %: read-out: % témoin +PMA; for MMP1 (ng/ml): 4 h pre-incubation, +PMA 0.1 µg/ml. The text has this:
Les essais figurant au tableau 2 ci-après concernent la régulation d'une enzyme, la MMP1 (collagénase interstitielle humaine) appartenant aux métalloprotéinases, de la famille des protéases, enzymes dégradant la matrice extra-cellulaire, la MMP1 dégradant particulièrement le collagène natif.
Les essais, dont les résultats figurent au tableau 2, ont donc consisté à comparer l'activité de la DHEA et des acides ganodériques B, C2 et G sur la régulation de l'activité de la MMP1 après stimulation des fibroblastes par PMA.
• Fibroblastes humains normaux profonds (type R2Ad2), utilisé au 2e passage. • Culture: 37° C, 5 % CO2 • Milieu de croissance : milieu Tebu PM-1 • Milieu d'essai : DMEM/HAMF10, vol/vol (Invitrogen 21969035 / Invitrogen 31550-023) • Hepes 15 mM (Invitrogen 1563-056) • L-glutamine 2 mM (Invitrogen 25030024) • pénicilline 50 UI/ml streptomycine 50 µg/ml (Invitrogen 15070063) • sans sérum de veau foetal
• solution stock : 10 % dans l'éthanol puis dilution à 0.1 % dans une solution de BSA délipidée à 5 mg/ml final • dilutions : en milieu de culture stérile • concentration finale testée: 0.001 % (50 µg/ml BSA 1^e conc, final) Acide Ganodérique B • solution stock : 10 % en DMSO • dilutions : en milieu de culture stérile • concentration finale testée: 0.04 % (50 µg/ml BSA final) Acide Ganodérique C2 • solution stock : 10 % en DMSO • dilutions : en milieu de culture stérile • concentration finale testée: 0.04 % (50 µg/ml BSA final) Acide Ganodérique G • solution stock : 10 % en DMSO • dilutions : en milieu de culture stérile • concentration finale testée: 0.04 % (50 µg/ml BSA final)
Les cellules ont été ensemensées à 17000 cellules par puits, en plaques 96 puits, une plaque pour chaque temps de culture. Toutes les conditions en triplicata (3 puits de culture). Les cellules ont été pré-cultivées pendant 24 h en milieu sans SVF. Après 24 h de pré-culture, les milieux ont été remplacés par un milieu équivalent contenant) les produits à l'essai ou non (contrôles) ou la DHEA à 0.001 %. Après 4 h d'incubation, une solution 10 fois concentrée de « phorbol myristate acétate » (PMA, Sigma, 0.1 µg/ml final) a été ajoutée ou non (contrôles) et les cellules ont été cultivées pendant 6 h supplémentaires.
A la fin de chaque temps de culture, les milieux de culture ont été récupérés et congelés à -80 °C pour dosage de la quantité de MMP-1 et la viabilité des tapis cellulaires a été contrôlée en utilisant un test standard de réduction du MTT.
Le dosage de MMP-1 (collagénase interstitielle humaine) a été réalisé par ELISA, à l'aide d'un kit « BIOTRACK human MMP-1, ELISA system, Amersham RPN2610 », selon les directives du fournisseur.
Résumé des conditions testées : • Modèle : fibroblastes humains • Test : dosage quantité de MMP-1 produite (protéine, ELISA) • Milieux : sans sérum • Tests : produits à l'essai, DHEA 0.001 % ou contrôles non traités, pendant 4 h • Stimulation : ajout de PMA (ou non, contrôles) et culture pendant 6 h. Produits (selon viabilités sur fibroblastes): • A.G. B 0:04 %; • A.G. C2 0.04 %; • A.G. G 0.04 %; • DHEA 10 µg/ml
Les données brutes de comptage ont été transférées et traitées sous le logiciel PRISM® (Graph Pad Software).
Les comparaisons inter-groupes ont été réalisées par analyse de variance (ANOVA) à l'aide du test de comparaison multiple de Dunnett.

The mark [1] stands for this setting: Fibroblast, ganoderic acid 0,04%, normal human fibroblasts, +PMA, 6h.
Where [2] appears, read: ganoderic acid 0,04%, normal human fibroblasts, 6h, Témoin + PMA 17,89.

Each structure is given as a SMILES string. A value given as a limit tells only on which side of the number the result lay.

In the case of `CC(CC(=O)CC(C)C1CC(=O)C2(C)C3=C(C(=O)CC12C)C1(C)CCC(O)C(C)(C)C1CC3O)C(=O)O` (stereo not shown) [A. ganodérique B, Acide Ganodérique B], the inhibition at 0.04 % (Fibroblast, 6 h) was roughly 30%. In addition, the activity at 0.04 % under setting [1] stood at 76%. Under setting [2], the “MMP1 (ng/ml)” value was 13,52 ng/ml.

In the case of `CC(CC(=O)CC(C)C1CC(O)C2(C)C3=C(C(=O)CC12C)C1(C)CCC(O)C(C)(C)C1CC3O)C(=O)O` (stereo not shown) [A. ganodérique C2, Acide Ganodérique C2], for the setting “Fibroblast, 6 h”, the inhibition at 0.04 % is roughly 30%. In addition, under setting [1], the activity at 0.04 % is 72%. Moreover, under setting [2], the “MMP1 (ng/ml)” value was 12,95 ng/ml.

For `CC(CC(=O)CC(C)C1CC(=O)C2(C)C3=C(C(=O)C(O)C12C)C1(C)CCC(O)C(C)(C)C1CC3O)C(=O)O` (stereo not shown) [A. ganodérique G, Acide Ganodérique G], for the setting “Fibroblast, 6 h”, the inhibition at 0.04 % was greater than 40%. Further, the activity at 0.04 % under setting [1] was 57%. For the same compound, the “MMP1 (ng/ml)” value under setting [2] is recorded as 10,15 ng/ml. Besides, the “effets anti-vieillissement (régulation MMP1)” value (result in words, comparison between ganoderic acids B, C2 and G at 0.04 %) is “activité supérieure aux deux autres acides ganodériques”.

Turning to `C[C@]12CC[C@H](O)CC1=CC[C@@H]1[C@@H]2CC[C@]2(C)C(=O)CC[C@@H]12` [DHEA, DéHydroEpiAndrostérone, reference compound], the “MMP1 (ng/ml)” value (DHEA 0,001%, normal human fibroblasts, 6h, Témoin + PMA 10,54) is recorded as 6,38 ng/ml. Besides, where the note is “DHEA 0,001%, normal human fibroblasts, +PMA, 6h, 360 min”, the “% témoin +PMA” value was 61%. For the same compound, the activity at 0.001 % (Fibroblast, 6 h, read-out: % témoin +PMA, DHEA 0,001%, normal human fibroblasts, +PMA, 6h) turned out to be 60%.
